For the assay, the target named is human TRPA1 (Homo sapiens (Human), UniProt O75762). Kind of assay: hTRPA1 CHO Ca2+ FLIPR assay (block of cinnamaldehyde induced calcium influx). It is filed as cell-based. As to conditions: CHO cells expressing TRPA1; 75 uM cinnamaldehyde; Hill coefficient fixed to 1.5; read-out: hTRPA1 (hTRPA1 CHO Ca2+ MAX EVO (IC50)). As for the experimental part:
CHO cells expressing TRPA1 were plated into 384-well plates, incubated overnight at 37° C., and loaded with BD calcium indicator dye for 1 hr at 37° C. followed by 15 minutes at room temperature. The assay buffer was Hank's Balanced Salt Solution (HBSS) containing 20 mM HEPES (pH readjusted to 7.4) along with 0.02% BSA.
Following dye load and plate cool down, compounds were added to the cells using FLIPR Tetra. Plates were then incubated with compounds for 20 minutes at room temperature prior to adding agonist.
The IC50 results were fit with a standard Hill function, keeping the Hill coefficient (n) fixed to 1.5. Fixing the Hill coefficient will generally reduce variability of the IC50 determination. The IC50 results were individually examined to make sure the MIN and MAX points were set correctly prior to validation of the results.

The structures appear in SMILES notation.

human TRPA1, sequence (O75762 whole entry): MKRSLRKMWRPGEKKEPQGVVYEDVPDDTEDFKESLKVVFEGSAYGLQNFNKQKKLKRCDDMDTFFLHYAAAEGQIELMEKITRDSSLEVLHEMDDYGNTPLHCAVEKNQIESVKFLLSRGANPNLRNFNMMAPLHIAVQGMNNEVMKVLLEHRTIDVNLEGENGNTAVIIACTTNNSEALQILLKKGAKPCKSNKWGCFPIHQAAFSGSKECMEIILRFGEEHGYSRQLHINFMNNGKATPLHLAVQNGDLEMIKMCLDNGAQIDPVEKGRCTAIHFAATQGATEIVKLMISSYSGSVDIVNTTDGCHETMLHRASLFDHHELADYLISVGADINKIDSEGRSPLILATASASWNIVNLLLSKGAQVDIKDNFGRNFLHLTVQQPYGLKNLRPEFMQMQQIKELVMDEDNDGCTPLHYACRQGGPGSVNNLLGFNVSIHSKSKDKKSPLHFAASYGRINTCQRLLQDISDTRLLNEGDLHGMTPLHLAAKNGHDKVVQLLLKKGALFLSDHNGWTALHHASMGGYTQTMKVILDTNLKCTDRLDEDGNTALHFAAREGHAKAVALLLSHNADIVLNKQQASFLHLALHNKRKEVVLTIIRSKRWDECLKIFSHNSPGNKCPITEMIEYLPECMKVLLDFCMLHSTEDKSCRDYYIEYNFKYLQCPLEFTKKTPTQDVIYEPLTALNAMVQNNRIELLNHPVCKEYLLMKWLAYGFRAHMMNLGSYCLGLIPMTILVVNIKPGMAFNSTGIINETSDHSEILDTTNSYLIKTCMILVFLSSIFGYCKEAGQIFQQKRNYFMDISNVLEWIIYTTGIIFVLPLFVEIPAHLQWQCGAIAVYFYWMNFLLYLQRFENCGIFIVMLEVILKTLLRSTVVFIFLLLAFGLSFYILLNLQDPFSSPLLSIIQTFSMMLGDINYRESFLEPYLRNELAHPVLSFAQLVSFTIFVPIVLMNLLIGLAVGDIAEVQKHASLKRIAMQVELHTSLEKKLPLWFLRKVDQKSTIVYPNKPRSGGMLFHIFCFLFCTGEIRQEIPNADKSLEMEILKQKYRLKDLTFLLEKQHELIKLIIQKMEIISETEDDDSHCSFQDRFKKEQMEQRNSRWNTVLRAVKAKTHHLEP

For the molecule `O=c1c2cccnc2cnn1Cc1nn([C@H]2C[C@H](c3ccc(Cl)cc3)C2)c(=O)o1` [compound 90, 3-[3-(4-chlorophenyl)cyclobutyl]-5-[(5-oxopyrido[2,3-d]pyridazin-6-yl)methyl]-1,3,4-oxadiazol-2-one], the IC50 (as a rule, the point on the concentration scale where inhibition reaches its midpoint) stood at 79.9 nM.

Take `Cn1cnc2ncn(Cc3nn(C[C@@H](F)c4ccc(Cl)cc4)c(=O)o3)c(=O)c21` [compound 15, (S)-3-(2-(4-chlorophenyl)-2-fluoroethyl)-5-((7-methyl-6-oxo-6H-purin-1(7H)-yl)methyl)-1,3,4-oxadiazol-2(3H)-one]: the IC50 turned out to be 3830 nM. Regarding `Cn1cnc2ncn(Cc3nn(C[C@H](F)c4ccc(Cl)cc4)c(=O)o3)c(=O)c21` [compound 14, (R)-3-(2-(4-chlorophenyl)-2-fluoroethyl)-5-((7-methyl-6-oxo-6H-purin-1(7H)-yl)methyl)-1,3,4-oxadiazol-2(3H)-one], the IC50 was 34 nM.

For `Cn1cnc2ncn(Cc3nn(CCc4ccc5ccccc5c4)c(=O)o3)c(=O)c21` [compound 12, 5-((7-methyl-6-oxo-6H-purin-1(7H)-yl)methyl)-3-(2-(naphthalen-2-yl)ethyl)-1,3,4-oxadiazol-2(3H)-one], the IC50 is 41 nM. In the case of `Cc1ccnc2ncn(Cc3nn(CCc4ccc(C#N)cc4)c(=O)o3)c(=O)c12` [compound 8, 4-[2-[5-[(5-methyl-4-oxo-pyrido[2,3-d]pyrimidin-3-yl)methyl]-2-oxo-1,3,4-oxadiazol-3-yl]ethyl]benzonitrile], the IC50 stood at 166 nM. On to `O=c1c2cccnc2ncn1Cc1nn(C[C@H](F)c2ccc(Cl)cc2)c(=O)o1` (racemic) [compound 95, 5-[(4-oxopyrido[2,3-d]pyrimidin-3-yl)methyl]-3-[rac-(2R)-2-(4-chlorophenyl)-2-fluoro-ethyl]-1,3,4-oxadiazol-2-one], for which the IC50 amounted to 48.5 nM.

`Cn1cnc2ncn(Cc3nn([C@H]4C[C@](F)(c5ccc(Cl)cc5)C4)c(=O)o3)c(=O)c21` [compound 105, trans-3-[3-(4-chlorophenyl)-3-fluoro-cyclobutyl]-5-[(7-methyl-6-oxo-purin-1-yl)methyl]-1,3,4-oxadiazol-2-one]: the IC50 was 64 nM. With `Cn1cnc2ncn(Cc3nn(C[C@H](F)c4ccc(OC(F)F)cc4)c(=O)o3)c(=O)c21` (racemic) [compound 110, 5-[(7-methyl-6-oxo-purin-1-yl)methyl]-3-[rac-(2R)-2-[4-(difluoromethoxy)phenyl]-2-fluoro-ethyl]-1,3,4-oxadiazol-2-one], the IC50 was found to be 81.3 nM. For `Cn1cnc2ncn(Cc3nn(CCc4ccc(C(F)(F)F)cc4)c(=O)o3)c(=O)c21` [compound 9, 5-((7-methyl-6-oxo-6H-purin-1(7H)-yl)methyl)-3-(4-(trifluoromethyl)phenethyl)-1,3,4-oxadiazol-2(3H)-one], the IC50 came to 582 nM. Under `Cn1cnc2ncn(Cc3nn(CCc4ccc(OC(F)(F)F)cc4)c(=O)o3)c(=O)c21` [compound 10, 5-((7-methyl-6-oxo-6H-purin-1(7H)-yl)methyl)-3-(4-(trifluoromethoxy)phenethyl)-1,3,4-oxadiazol-2(3H)-one] stands 86 nM. Under `Cn1cnc2ncn(Cc3nn(C[C@H](F)c4cccc(Cl)c4)c(=O)o3)c(=O)c21` (racemic) [compound 84, 5-[(7-methyl-6-oxo-purin-1-yl)methyl]-3-[rac-(2R)-2-(3-chlorophenyl)-2-fluoro-ethyl]-1,3,4-oxadiazol-2-one] stands 166 nM. Then `Cc1noc2ncn(Cc3nn([C@H]4C[C@H](c5ccc(Cl)cc5)C4)c(=O)o3)c(=O)c12` [compound 91, 5-[[4-[3-(4-chlorophenyl)cyclobutyl]-5-oxo-1,3,4-oxadiazol-2-yl]methyl]-3-methyl-isoxazolo[5,4-d]pyrimidin-4-one], with 36.2 nM; and `Cn1cnc2ncn(Cc3nn(CCc4ccc(Br)c(Cl)c4)c(=O)o3)c(=O)c21` [compound 25, 1-([4-[2-(4-bromo-3-chlorophenyl)ethyl]-5-oxo-4,5-dihydro-1,3,4-oxadiazol-2-yl]methyl)-7-methyl-6,7-dihydro-1H-purin-6-one], with 132 nM.

With `Cn1cnc2ncn(Cc3nn(CCc4ccc(C#N)cc4)c(=O)o3)c(=O)c21` [compound 5, 4-(2-(5-((7-methyl-6-oxo-6H-purin-1(7H)-yl)methyl)-2-oxo-1,3,4-oxadiazol-3(2H)-yl)ethyl)benzonitrile], the half-maximal inhibitory concentration (IC50) came out at 1170 nM. As for `Cn1cnc2ncn(Cc3nn([C@@H]4CC[C@@H](c5ccc(F)cc5)C4)c(=O)o3)c(=O)c21` [compound 92, 5-[(7-methyl-6-oxo-purin-1-yl)methyl]-3-[(1R,3R)-3-(4-fluorophenyl)cyclopentyl]-1,3,4-oxadiazol-2-one], the IC50 worked out at 8.26 nM.

Turning to `Cn1cnc2ncn(Cc3nn(CCc4ccc(Cl)cc4)c(=O)o3)c2c1=O` [compound 26, 7-([4-[2-(4-chlorophenyl)ethyl]-5-oxo-4,5-dihydro-1,3,4-oxadiazol-2-yl]methyl)-1-methyl-6,7-dihydro-1H-purin-6-one], the half-inhibitory concentration (IC50) came out at 737 nM. In the case of `Cc1ccnc2ncn(Cc3nn([C@H]4C[C@H](c5ccc(C#N)cc5)C4)c(=O)o3)c(=O)c12` [compound 79, 4-[3-[5-[(5-methyl-4-oxo-pyrido[2,3-d]pyrimidin-3-yl)methyl]-2-oxo-1,3,4-oxadiazol-3-yl]cyclobutyl]benzonitrile], the IC50 was 2.58 nM. Then `O=c1c2cccnc2ncn1Cc1nn(C[C@H](F)c2ccc(OC(F)F)cc2)c(=O)o1` (racemic) [compound 81, 5-[(4-oxopyrido[2,3-d]pyrimidin-3-yl)methyl]-3-[rac-(2R)-2-[4-(difluoromethoxy)phenyl]-2-fluoro-ethyl]-1,3,4-oxadiazol-2-one], with 50 nM. Under `Cn1cnc2ncn(Cc3nn(CCc4ccccc4)c(=O)o3)c(=O)c21` [compound 4, 5-((7-methyl-6-oxo-6H-purin-1(7H)-yl)methyl)-3-phenethyl-1,3,4-oxadiazol-2(3H)-one] stands 1060 nM; under `Cc1ccnc2ncn(Cc3nn(CCCOc4cccc(Cl)c4)c(=O)o3)c(=O)c12` [compound 85, 3-(3-(3-chlorophenoxy)propyl)-5-((5-methyl-4-oxopyrido[2,3-d]pyrimidin-3(4H)-yl)methyl)-1,3,4-oxadiazol-2(3H)-one], 6.34 nM. Under `Cn1cnc2ncn(Cc3nn(C[C@@H](F)c4ccc5ccccc5c4)c(=O)o3)c(=O)c21` [compound 37, 5-[(7-methyl-6-oxo-purin-1-yl)methyl]-3-[(2S)-2-fluoro-2-(2-naphthyl)ethyl]-1,3,4-oxadiazol-2-one] stands 332 nM; under `Cn1cnc2ncn(Cc3nn(CCc4ccc(Cl)s4)c(=O)o3)c(=O)c21` [compound 21, 3-(2-(5-chlorothiophen-2-yl)ethyl)-5-((7-methyl-6-oxo-6H-purin-1(7H)-yl)methyl)-1,3,4-oxadiazol-2(3H)-one], 286 nM. As to `Cn1cnc2ncn(Cc3nn(CCc4ccc(Cl)cc4F)c(=O)o3)c(=O)c21` [compound 41, 3-(4-chloro-2-fluorophenethyl)-5-((7-methyl-6-oxo-6H-purin-1(7H)-yl)methyl)-1,3,4-oxadiazol-2(3H)-one], the IC50 came out at 492 nM. On to `Cc1cncc2ncn(Cc3nn(CCc4ccc(Cl)cc4)c(=O)o3)c(=O)c12` [compound 6, 3-(4-chlorophenethyl)-5-((5-methyl-4-oxopyrido[3,4-d]pyrimidin-3(4H)-yl)methyl)-1,3,4-oxadiazol-2(3H)-one], for which the IC50 came out at 13 nM. As to `CN(C)c1ccc(CCn2nc(Cn3cnc4ncn(C)c4c3=O)oc2=O)cc1` [compound 17, 3-(4-(dimethylamino)phenethyl)-5-((7-methyl-6-oxo-6H-purin-1(7H)-yl)methyl)-1,3,4-oxadiazol-2(3H)-one], the IC50 worked out at 164 nM. On to `Cn1cnc2cnn(Cc3nn(CCc4ccc(Cl)cc4)c(=O)o3)c(=O)c21` [compound 35, 3-[2-(4-chlorophenyl)ethyl]-5-[(3-methyl-4-oxo-imidazo[4,5-d]pyridazin-5-yl)methyl]-1,3,4-oxadiazol-2-one], for which the IC50 was 96 nM. As for `Cc1ccc(=O)n2ccn(Cc3nn([C@H]4C[C@H](c5ccc(Cl)cc5)C4)c(=O)o3)c(=O)c12` [compound 58, 2-[[4-[3-(4-chlorophenyl)cyclobutyl]-5-oxo-1,3,4-oxadiazol-2-yl]methyl]-9-methyl-pyrido[1,2-a]pyrazine-1,6-dione], the IC50 was determined as 40.3 nM. Regarding `O=c1c2cccc(=O)n2ccn1Cc1nn([C@H]2C[C@H](c3ccc(Cl)cc3)C2)c(=O)o1` [compound 65, trans-2-[[4-[3-(4-chlorophenyl)cyclobutyl]-5-oxo-1,3,4-oxadiazol-2-yl]methyl]pyrido[1,2-a]pyrazine-1,6-dione], the IC50 came to 21.1 nM. Consider `Cc1ccnc2ncn(Cc3nn([C@H]4C[C@](F)(c5ccc(F)cc5)C4)c(=O)o3)c(=O)c12` [compound 96, 3-[3-fluoro-3-(4-fluorophenyl)cyclobutyl]-5-[(5-methyl-4-oxo-pyrido[2,3-d]pyrimidin-3-yl)methyl]-1,3,4-oxadiazol-2-one], for which the IC50 came out at 18 nM. Consider `C[C@@H](Cn1nc(Cn2cnc3ncn(C)c3c2=O)oc1=O)c1ccc(Cl)cc1` [compound 20, (R)-3-(2-(4-chlorophenyl)propyl)-5-((7-methyl-6-oxo-6H-purin-1(7H)-yl)methyl)-1,3,4-oxadiazol-2(3H)-one], for which the IC50 was 812 nM. Then `Cn1cnc2ncn(Cc3nn([C@H]4C[C@H](c5ccc6ccccc6c5)C4)c(=O)o3)c(=O)c21` [compound 113, 5-[(7-methyl-6-oxo-purin-1-yl)methyl]-3-[3-(2-naphthyl)cyclobutyl]-1,3,4-oxadiazol-2-one], with 17.8 nM.

The values are drawn from patent US10913742B2, “Oxadiazolones as transient receptor potential channel inhibitors” (Genentech, Inc., priority 2017, dated 2021).
